Experimental data reported in patent US20210221848A1, “POLYMYXIN DERIVATIVES AND THEIR USE IN COMBINATION THERAPY TOGETHER WITH DIFFERENT ANTIBIOTICS” (priority 2014, published 2021).
Read-outs that look alike come from different tables or passages of the source.

Assays:
[1] = test system: E. coli strains with elevated MICs to Polymyxin B; experiment: MIC against strains with elevated MICs to Polymyxin B; type: cell-based, Escherichia coli; conditions: Table 6D; for MIC E. coli 058: strain 058, elevated MIC to Polymyxin B; for MIC E. coli 059: strain 059, elevated MIC to Polymyxin B; for MIC E. coli 060: strain 060, elevated MIC to Polymyxin B; for MIC E. coli 061: strain 061, elevated MIC to Polymyxin B
Method: (§1) The inoculum was prepared by making a direct suspension of isolated colonies (selected from an 18-24 hour Mueller-Hinton agar plate) adjusted to the 0.5 McFarland standard. […] The assays were performed in duplicate. […] In cases where the duplicate values varied by less than 2-fold, the lower of the two values is reported. If a variation of greater than 2-fold was observed, the assay was considered non-valid. Several of the compounds were subjected to multiple tests, and where this is the case, the MIC reflects the modal value obtained.
(§2) The Further Synthesis Examples were tested against a range of Gram negative bacteria, and tested for HK-2 cell toxicity. All the worked examples, including the Synthesis and Further Synthesis Examples, were also tested against a range of Gram negative bacteria that are resistant to Polymyxin B (i.e. those strains where Polymyxin B has an elevated MIC value).

[2] = test system: K. pneumoniae strains with elevated MICs to Polymyxin B; experiment: as above; type: cell-based, Klebsiella pneumoniae; conditions: Table 6D; for MIC K. pneumoniae 062: strain 062, elevated MIC to Polymyxin B; for MIC K. pneumoniae 063: strain 063, elevated MIC to Polymyxin B; for MIC K. pneumoniae 064: strain 064, elevated MIC to Polymyxin B; for MIC K. pneumoniae 655: strain 655, elevated MIC to Polymyxin B
Method: as §1, §2

[3] = test system: P. aeruginosa strains with elevated MICs to Polymyxin B; experiment: as above; type: cell-based, Pseudomonas aeruginosa; conditions: Table 6D; for MIC P. aeruginosa 065: strain 065, elevated MIC to Polymyxin B; for MIC P. aeruginosa 066: strain 066, elevated MIC to Polymyxin B; for MIC P. aeruginosa 067: strain 067, elevated MIC to Polymyxin B
Method: as §1, §2

[4] = test system: A. baumanii strains with elevated MICs to Polymyxin B; experiment: as above; type: cell-based, Acinetobacter baumannii; conditions: Table 6D; for MIC A. baumannii 053: strain 053, elevated MIC to Polymyxin B; for MIC A. baumannii 056: strain 056, elevated MIC to Polymyxin B; for MIC A. baumannii 068: strain 068, elevated MIC to Polymyxin B; for MIC A. baumannii 070: strain 070, elevated MIC to Polymyxin B
Method: as §1, §2

[5] = absence of a second agent, Table 6B

Substance	MIC E. coli 058 [1]	MIC E. coli 059 [1]	MIC E. coli 060 [1]	MIC E. coli 061 [1]	MIC K. pneumoniae 063 [2]	MIC K. pneumoniae 064 [2]	MIC K. pneumoniae 655 [2]	MIC P. aeruginosa 065 [3]	MIC P. aeruginosa 066 [3]	MIC P. aeruginosa 067 [3]	MIC A. baumannii 053 [4]	MIC A. baumannii 056 [4]	MIC A. baumannii 068 [4]	MIC A. baumannii 070 [4]	MIC, E. coli ATCC 25922 (E. coli; sole activity, Table 6C)	MIC, K. pneumoniae ATCC 4352 (K. pneumoniae; sole activity, Table 6C)	MIC, P. aeruginosa ATCC 27853 (P. aeruginosa; sole activity, Table 6C)	MIC, P. aeruginosa CCUG 59347 (P. aeruginosa; sole activity, Table 6C)	MIC, A. baumannii ATCC BAA-747 (A. baumannii; sole activity, Table 6C)	MIC, A. baumannii NCTC 13424 (A. baumannii; sole activity, Table 6C)	other results
1-(2- trifluoromethylben- zyl)piperazine- 2-carbonyl L-Thr- L-Dap-polymyxin B heptapeptide [Example D71]	1 micrograms/mL	8 micrograms/mL	4 micrograms/mL	8 micrograms/mL	16 micrograms/mL	4 micrograms/mL	32 micrograms/mL	0.5 micrograms/mL	1 micrograms/mL	16 micrograms/mL	64 micrograms/mL	16 micrograms/mL	4 micrograms/mL	8 micrograms/mL	0.25 micrograms/mL	0.25 micrograms/mL	0.5 micrograms/mL	1 micrograms/mL	0.5 micrograms/mL	0.25 micrograms/mL	MIC K. pneumoniae 062 [2]: 32 micrograms/mL; MIC, E. coli NCTC 13441 (E. coli; sole activity, Table 6C): 0.25 micrograms/mL; MIC, K. pneumoniae ATCC BAA-2146 (K. pneumoniae; sole activity, Table 6C): 0.5 micrograms/mL
trans-5- cyclohexyl- piperidine-3- carbonyl L-Thr-L- Dap-polymyxin E heptapeptide [Example D86]	0.5 micrograms/mL	1 micrograms/mL	1 micrograms/mL	4 micrograms/mL	8 micrograms/mL	1 micrograms/mL	4 micrograms/mL	0.5 micrograms/mL	0.25 micrograms/mL	32 micrograms/mL	16 micrograms/mL	50.25 micrograms/mL	1 micrograms/mL	2 micrograms/mL	0.125 micrograms/mL	0.03 micrograms/mL	0.25 micrograms/mL	0.5 micrograms/mL	0.03 micrograms/mL	0.06 micrograms/mL	MIC K. pneumoniae 062 [2]: 1 micrograms/mL
3-aminomethyl- undecanoyl L- Thr-L-Dap- polymyxin B heptapeptide [Example D92]	0.5 micrograms/mL	0.5 micrograms/mL	1 micrograms/mL	4 micrograms/mL	8 micrograms/mL	2 micrograms/mL	4 micrograms/mL	0.5 micrograms/mL	1 micrograms/mL	8 micrograms/mL	8 micrograms/mL	4 micrograms/mL	1 micrograms/mL	1 micrograms/mL	0.5 micrograms/mL	0.25 micrograms/mL	0.25 micrograms/mL	0.5 micrograms/mL	0.5 micrograms/mL	0.25 micrograms/mL	MIC K. pneumoniae 062 [2]: 2 micrograms/mL
(cis-5- cyclohexylpiperidine)- 3-carbonyl L-Thr-L- Dap-polymyxin B heptapeptide [Example D44]	2 micrograms/mL					2 micrograms/mL	32 micrograms/mL	1 micrograms/mL	0.5 micrograms/mL	64 micrograms/mL											MIC, E. coli ATCC 25922 (E. coli; [5]): 1 micrograms/mL; MIC, E. coli NCTC 13441 (E. coli; [5]): 0.5 micrograms/mL; MIC, K. pneumoniae ATCC BAA-2146 (K. pneumoniae; [5]): 0.5 micrograms/mL; MIC, P. aeruginosa ATCC 27853 (P. aeruginosa; [5]): 0.25 micrograms/mL; MIC, P. aeruginosa CCUG 59347 (P. aeruginosa; [5]): 0.5 micrograms/mL; MIC, A. baumannii ATCC BAA-747 (A. baumannii; [5]): 0.25 micrograms/mL
(trans-5- (cyclohexyl- piperidine)-3- carbonyl L-Thr-L- Dap-polymyxin B heptapeptide [Example D78]	0.5 micrograms/mL	0.5 micrograms/mL	1 micrograms/mL	1 micrograms/mL	4 micrograms/mL	1 micrograms/mL	4 micrograms/mL	1 micrograms/mL	0.5 micrograms/mL	32 micrograms/mL	8 micrograms/mL	50.25 micrograms/mL	1 micrograms/mL	1 micrograms/mL	0.125 micrograms/mL	0.06 micrograms/mL	0.5 micrograms/mL	0.5 micrograms/mL	0.06 micrograms/mL	0.06 micrograms/mL	MIC, E. coli NCTC 13441 (E. coli; sole activity, Table 6C): 0.125 micrograms/mL; MIC, K. pneumoniae ATCC BAA-2146 (K. pneumoniae; sole activity, Table 6C): 0.125 micrograms/mL
1-(2- hydroxybenzyl)pi- perazine-2- carbonyl Polymyxin B nonapeptide [Example D67]	8 micrograms/mL	64 micrograms/mL	16 micrograms/mL		128 micrograms/mL			4 micrograms/mL			>256 micrograms/mL		64 micrograms/mL		0.06 micrograms/mL	0.03 micrograms/mL	0.25 micrograms/mL	0.5 micrograms/mL	0.5 micrograms/mL	0.25 micrograms/mL	MIC, E. coli NCTC 13441 (E. coli; sole activity, Table 6C): 0.125 micrograms/mL; MIC, K. pneumoniae ATCC BAA-2146 (K. pneumoniae; sole activity, Table 6C): 0.06 micrograms/mL
Cis-5-(N- isobutylsulfamoyl) piperidine-3- carbonyl L-Thr-L- Dap-polymyxin B heptapeptide [Example D94]	16 micrograms/mL							32 micrograms/mL							0.03 micrograms/mL		0.5 micrograms/mL	1 micrograms/mL	0.06 micrograms/mL	0.06 micrograms/mL	
1-(2- trifluoromethylben- zyl)piperazine- 2-carbonyl polymyxin E nonapeptide [Example D72]		16 micrograms/mL	8 micrograms/mL	16 micrograms/mL	32 micrograms/mL		64 micrograms/mL				>128 micrograms/mL	128 micrograms/mL	64 micrograms/mL	128 micrograms/mL	0.25 micrograms/mL	0.125 micrograms/mL	0.5 micrograms/mL	1 micrograms/mL	0.125 micrograms/mL		MIC K. pneumoniae 062 [2]: 64 micrograms/mL; MIC, E. coli NCTC 13441 (E. coli; sole activity, Table 6C): 0.25 micrograms/mL; MIC, K. pneumoniae ATCC BAA-2146 (K. pneumoniae; sole activity, Table 6C): 0.25 micrograms/mL
(S)-4-amino-2- (((S)-6- methyloctanoyl)ox- y)butanoyl polymyxin B nonapeptide [Example D93]	8 micrograms/mL							2 micrograms/mL							0.25 micrograms/mL	0.25 micrograms/mL	0.25 micrograms/mL	1 micrograms/mL	0.25 micrograms/mL	0.5 micrograms/mL	
